Results from ChEMBL document CHEMBL6087451, “Design, Synthesis, and Biological Evaluation of 2-Arylaminopyrimidine Derivatives as Dual Cathepsin L and JAK Inhibitors for the Treatment of Acute Lung Injury” (J Med Chem, 2025).
Active and inactive are the calls of the source. No cut-off for these calls is given here.

Tests used:
Mus musculus [1] = assay: Anti-inflammatory activity in C57BL/6 mouse model of LPS-induced acute lung injury assessed as decrease in alveolar hemorrhage in lung at 10 mg/kg, ip treated for 3 days followed by LPS treatment after 1 hr post-compound administration on fourth day measured after 18 hrs post-LPS treatment by H and E staining based analysis; format: functional, organism-based; settings: time 91.0 hrs
[2] = AUC (0 to infinity) in Sprague-Dawley rat at 3.5 mg/kg, ip measured for 24 hrs by LC-MS/MS analysis; format: ADME, organism-based; settings: in vivo
[3] = AUC (0 to t) in Sprague-Dawley rat at 3.5 mg/kg, po measured for 24 hrs by LC-MS/MS analysis; format: ADME, organism-based; settings: in vivo
cells = settings: Homo sapiens, HBE
Description: Anti-inflammatory activity against HBE cells assessed as inhibition of LPS-induced IL-6 level pretreated for 30 mins followed by LPS treatment for 24 hrs by ELISA

[4] = biological target: T1, Serine/threonine-protein kinase Chk1 (Homo sapiens) (UniProt O14757); assay: Inhibition of CHK1 (unknown origin) at 1 uM by kinase profiling analysis relative to control
T1 sequence (whole entry): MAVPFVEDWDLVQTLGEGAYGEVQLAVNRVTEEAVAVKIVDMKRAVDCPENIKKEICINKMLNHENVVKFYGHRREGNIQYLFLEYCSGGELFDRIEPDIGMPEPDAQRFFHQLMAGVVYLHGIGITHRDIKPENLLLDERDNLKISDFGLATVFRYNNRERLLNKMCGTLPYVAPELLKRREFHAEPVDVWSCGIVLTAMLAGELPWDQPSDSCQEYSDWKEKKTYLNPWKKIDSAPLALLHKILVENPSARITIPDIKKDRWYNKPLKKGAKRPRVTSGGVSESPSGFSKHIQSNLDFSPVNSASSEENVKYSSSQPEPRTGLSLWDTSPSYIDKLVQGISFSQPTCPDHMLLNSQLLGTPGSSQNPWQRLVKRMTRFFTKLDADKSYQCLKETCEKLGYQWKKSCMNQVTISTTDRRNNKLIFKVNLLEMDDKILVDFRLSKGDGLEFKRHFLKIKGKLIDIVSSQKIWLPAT

Mus musculus [5] = assay: In vivo inhibition of mature CTSL in lung of C57BL/6 mouse model of LPS-induced acute lung injury at 10 to 20 mg/kg, ip treated for 3 days followed by LPS treatment after 1 hr post-compound administration on fourth day measured after 18 hrs post-LPS treatment by Western blot analysis; format: functional, organism-based; settings: dose 10-20 mg/kg, time 91.0 hrs
RAW264.7 [6] = assay: Anti-inflammatory activity against mouse RAW264.7 cells assessed as inhibition of LPS-induced IL-1beta mRNA level at 50 to 500 nM by RT-qPCR analysis; format: functional, cell-based; settings: dose 50-500 nM
Mus musculus [7] = assay: Anti-inflammatory activity in C57BL/6 mouse model of LPS-induced acute lung injury assessed as decrease in total protein concentration in BALF at 10 mg/kg, ip treated for 3 days followed by LPS treatment after 1 hr post-compound administration on fourth day measured after 18 hrs post-LPS treatment; format: functional, organism-based; settings: time 91.0 hrs
Procathepsin L = Procathepsin L (Homo sapiens, UniProt P07711); assay: Inhibition of recombinant human Cat L using f Z-Phe-Arg-AMC as substrate preincubated for 30 mins followed by substrate addition
RAW264.7 [8] = assay: Anti-inflammatory activity against mouse RAW264.7 cells assessed as inhibition of LPS-induced IL-6 level
HBE = assay: Anti-inflammatory activity against HBE cells assessed as inhibition of LPS-induced p-Ikappa-Balpha level pretreated for 30 mis followed by LPS treatment for 16 hrs by Western blot analysis; format: functional, cell-based; settings: Homo sapiens, dose 0.5-5 µM, time 16.5 hrs
[9] = biological target: T2, Tyrosine-protein kinase JAK3 (Homo sapiens, UniProt P52333); assay: Inhibition of JAK3 (unknown origin) using TK-biotin as substrate incubated for 30 mins in presence of ATP by HTRF assay
T2 sequence (P52333 whole entry): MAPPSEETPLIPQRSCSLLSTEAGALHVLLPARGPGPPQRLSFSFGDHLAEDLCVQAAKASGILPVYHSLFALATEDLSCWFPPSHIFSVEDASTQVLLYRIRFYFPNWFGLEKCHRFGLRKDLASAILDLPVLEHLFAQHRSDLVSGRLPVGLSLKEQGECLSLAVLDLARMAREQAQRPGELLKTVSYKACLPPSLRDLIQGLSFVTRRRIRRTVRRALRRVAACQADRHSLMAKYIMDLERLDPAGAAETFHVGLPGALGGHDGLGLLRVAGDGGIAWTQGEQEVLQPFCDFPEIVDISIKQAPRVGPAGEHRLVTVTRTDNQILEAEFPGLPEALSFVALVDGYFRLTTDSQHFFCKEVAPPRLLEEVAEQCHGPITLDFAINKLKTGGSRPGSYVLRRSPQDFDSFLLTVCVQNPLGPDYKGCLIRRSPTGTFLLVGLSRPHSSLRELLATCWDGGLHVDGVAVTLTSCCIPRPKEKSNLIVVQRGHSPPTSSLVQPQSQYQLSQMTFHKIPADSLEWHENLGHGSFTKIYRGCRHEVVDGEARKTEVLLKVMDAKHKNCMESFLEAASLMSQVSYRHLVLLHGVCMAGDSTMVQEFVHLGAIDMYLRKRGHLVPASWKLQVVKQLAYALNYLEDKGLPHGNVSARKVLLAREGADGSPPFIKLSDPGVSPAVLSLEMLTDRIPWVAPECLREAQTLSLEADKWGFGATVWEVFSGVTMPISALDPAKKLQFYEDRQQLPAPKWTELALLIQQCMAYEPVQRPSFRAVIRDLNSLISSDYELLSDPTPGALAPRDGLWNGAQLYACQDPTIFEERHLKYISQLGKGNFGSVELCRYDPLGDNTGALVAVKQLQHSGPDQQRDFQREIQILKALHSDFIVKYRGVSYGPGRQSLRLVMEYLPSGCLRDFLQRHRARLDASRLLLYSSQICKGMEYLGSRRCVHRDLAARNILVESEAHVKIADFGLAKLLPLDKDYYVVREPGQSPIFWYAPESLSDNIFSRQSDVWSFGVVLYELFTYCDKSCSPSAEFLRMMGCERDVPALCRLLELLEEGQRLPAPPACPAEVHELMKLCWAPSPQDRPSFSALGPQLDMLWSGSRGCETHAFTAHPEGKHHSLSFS

Mus musculus [10] = assay: Anti-inflammatory activity in C57BL/6 mouse model of LPS-induced acute lung injury assessed as decrease in wet to dry ratio in lung at 10 mg/kg, ip treated for 3 days followed by LPS treatment after 1 hr post-compound administration on fourth day measured after 18 hrs post-LPS treatment; format: functional, organism-based; settings: time 91.0 hrs
RAW264.7 [11] = assay: Cytotoxicity against mouse RAW264.7 cells assessed as cell viability at 0.5 to 5 uM; format: toxicity, cell-based; settings: raw264.7, 5 µM, dose 0.5-5 µM
Mus musculus [12] = assay: Anti-inflammatory activity in C57BL/6 mouse model of LPS-induced acute lung injury assessed as decrease in number of total cells in BALF at 10 mg/kg, ip treated for 3 days followed by LPS treatment after 1 hr post-compound administration on fourth day measured after 18 hrs post-LPS treatment; format: functional, organism-based; settings: time 91.0 hrs
[13] = Half life in Sprague-Dawley rat at 3.5 mg/kg, po measured for 24 hrs by LC-MS/MS analysis; format: ADME, organism-based; settings: in vivo
[14] = biological target: Tyrosine-protein kinase JAK2 (Homo sapiens, UniProt O60674); assay: Inhibition of JAK2 (unknown origin) using TK-biotin as substrate incubated for 30 mins in presence of ATP by HTRF assay
Tyrosine-protein kinase JAK2, sequence (O60674 whole entry): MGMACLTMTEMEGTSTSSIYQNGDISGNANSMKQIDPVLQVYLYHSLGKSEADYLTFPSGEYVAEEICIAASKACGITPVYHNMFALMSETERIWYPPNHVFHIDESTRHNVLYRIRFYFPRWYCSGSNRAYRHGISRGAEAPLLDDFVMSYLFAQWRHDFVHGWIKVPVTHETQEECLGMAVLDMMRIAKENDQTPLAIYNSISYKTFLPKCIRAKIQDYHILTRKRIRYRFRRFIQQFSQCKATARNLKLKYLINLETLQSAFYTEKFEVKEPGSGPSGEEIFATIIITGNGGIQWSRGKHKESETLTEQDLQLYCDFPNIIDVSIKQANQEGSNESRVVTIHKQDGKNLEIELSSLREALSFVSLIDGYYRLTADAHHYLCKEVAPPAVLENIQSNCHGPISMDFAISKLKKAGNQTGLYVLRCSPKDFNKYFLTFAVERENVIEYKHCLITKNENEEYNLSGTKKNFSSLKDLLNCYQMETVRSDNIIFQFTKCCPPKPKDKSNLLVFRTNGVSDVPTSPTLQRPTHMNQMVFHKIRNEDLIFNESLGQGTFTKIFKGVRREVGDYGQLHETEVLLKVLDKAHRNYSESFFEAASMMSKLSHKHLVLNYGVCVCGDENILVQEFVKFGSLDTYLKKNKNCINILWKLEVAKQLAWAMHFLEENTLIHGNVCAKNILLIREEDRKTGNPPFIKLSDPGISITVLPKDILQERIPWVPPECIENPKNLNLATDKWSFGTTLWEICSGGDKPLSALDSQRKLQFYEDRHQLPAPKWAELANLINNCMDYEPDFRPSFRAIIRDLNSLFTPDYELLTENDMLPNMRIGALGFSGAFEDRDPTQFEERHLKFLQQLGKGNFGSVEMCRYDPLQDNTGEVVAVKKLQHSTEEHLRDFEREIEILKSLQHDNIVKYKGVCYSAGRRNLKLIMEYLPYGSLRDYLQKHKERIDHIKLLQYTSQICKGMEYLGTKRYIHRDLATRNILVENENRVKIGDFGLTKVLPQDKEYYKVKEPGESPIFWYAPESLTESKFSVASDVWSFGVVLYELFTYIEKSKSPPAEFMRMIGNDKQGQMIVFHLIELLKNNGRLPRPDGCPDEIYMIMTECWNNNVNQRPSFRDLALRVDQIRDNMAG

Procathepsin L, sequence (P07711 whole entry): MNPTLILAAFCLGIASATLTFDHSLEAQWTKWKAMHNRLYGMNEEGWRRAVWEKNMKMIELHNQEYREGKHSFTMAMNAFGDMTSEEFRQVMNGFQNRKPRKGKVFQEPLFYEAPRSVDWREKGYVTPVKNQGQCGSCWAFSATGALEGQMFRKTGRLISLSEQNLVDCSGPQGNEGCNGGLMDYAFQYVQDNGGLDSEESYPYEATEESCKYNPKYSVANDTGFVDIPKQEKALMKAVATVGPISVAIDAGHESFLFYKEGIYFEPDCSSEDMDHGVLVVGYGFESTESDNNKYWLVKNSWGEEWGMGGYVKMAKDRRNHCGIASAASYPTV

AUC(0-inf) [2]: 416 ng·h/mL
AUC(0-t) at 24 h [3]: 157 ng·h/mL
IC50 (cells): 614 nM
inhibition [4]: 81.7%
IC50 (Procathepsin L): 690 nM
IC50 (RAW264.7 [8]): 50.1 nM
IC50 [9]: 27.3 nM
half-life [13]: 3.21 h
IC50 [14]: 5.25 nM
SMILES: Cl.Cn1cc(-c2ccnc(Nc3cccc(N)c3)n2)c2ccccc21
Activity (Mus musculus [1]): Active
inhibition (Mus musculus [5]): Active
inhibition (RAW264.7 [6]): Active
Activity (Mus musculus [7]): Active
inhibition (HBE): Dose-dependent-effect
Activity (Mus musculus [10]): Active
Activity (RAW264.7 [11]): Non-toxic
Activity (Mus musculus [12]): Active
